From patent publication US20190307726A1, “PHARMACEUTICAL FORMULATIONS” (Molecular Defenses Corporation, priority 2015, published 2019)

How the values were obtained:
wild type DHB4 E. coli = details: cited from earlier work
gshA- DHB4 E. coli = details: cited from earlier work
Gor- DHB4 E. coli = details: cited from earlier work
[1] = 30 μM compound, 0.5 mM GSH, 0.5 mM H2O2, NADPH consumption; cited from earlier work
E. coli Trx = E. coli Trx (Escherichia coli, UniProt P0AA25); experiment: Oxidation of reduced E. coli Trx-(SH)2, fluorescence spectroscopy; format: biochemical
E. coli Trx, sequence (P0AA25 whole entry): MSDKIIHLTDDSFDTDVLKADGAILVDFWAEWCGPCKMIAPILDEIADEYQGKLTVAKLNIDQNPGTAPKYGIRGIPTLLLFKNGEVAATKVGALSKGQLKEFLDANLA
Source text: Oxidation E. coli Trx-(SH)2 by ebselen derivatives. Oxidant property of benzisoselenazol-3(2H)-one derivatives on reduced E. coli Trx-(SH)2 were studied by fluorescence spectroscopy.

[2] = test system: MDR Mycobacterium tuberculosis; experiment: Sensitivity of Mycobacterium tuberculosis to ebselen, radiometric BACTEC 460 system; format: cell-based; details: medium with 5 g/l albumin; dependent upon albumin saturation
Staphylococcus aureus = details: cited from earlier work
HEK 293T cells = details: 24 h incubation, XTT; cited from earlier work
E. coli TrxR = E. coli TrxR (Escherichia coli, UniProt P0A9P4); details: cited from earlier work
E. coli TrxR, sequence (P0A9P4 2-321): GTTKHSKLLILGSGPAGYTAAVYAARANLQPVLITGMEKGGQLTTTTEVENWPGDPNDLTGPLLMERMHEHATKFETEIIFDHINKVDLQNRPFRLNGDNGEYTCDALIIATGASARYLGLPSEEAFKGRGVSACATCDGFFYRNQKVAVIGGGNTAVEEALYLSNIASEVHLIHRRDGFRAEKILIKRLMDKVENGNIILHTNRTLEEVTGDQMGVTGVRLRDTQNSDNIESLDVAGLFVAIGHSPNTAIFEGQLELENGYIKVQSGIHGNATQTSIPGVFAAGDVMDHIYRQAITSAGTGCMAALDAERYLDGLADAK

recombinant rat TrxR = target: T1, recombinant rat TrxR (Rattus norvegicus, UniProt O89049); details: cited from earlier work
T1 sequence (O89049 1-499): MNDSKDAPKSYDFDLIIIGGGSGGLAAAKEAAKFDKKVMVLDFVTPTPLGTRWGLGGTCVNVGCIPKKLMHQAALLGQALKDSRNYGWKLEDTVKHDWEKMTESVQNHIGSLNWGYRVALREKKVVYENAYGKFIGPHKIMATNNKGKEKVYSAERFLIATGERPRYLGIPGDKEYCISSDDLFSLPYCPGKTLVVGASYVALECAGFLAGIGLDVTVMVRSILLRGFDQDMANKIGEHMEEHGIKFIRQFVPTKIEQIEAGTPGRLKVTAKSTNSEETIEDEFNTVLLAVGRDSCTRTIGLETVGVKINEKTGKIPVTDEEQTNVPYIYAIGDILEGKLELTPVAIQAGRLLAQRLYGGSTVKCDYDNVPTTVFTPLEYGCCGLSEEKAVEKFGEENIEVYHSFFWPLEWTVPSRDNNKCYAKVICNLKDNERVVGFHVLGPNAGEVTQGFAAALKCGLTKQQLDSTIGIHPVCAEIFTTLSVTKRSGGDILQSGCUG

Structure (SMILES)	MIC for wild type DHB4 E. coli (wild type DHB4 E. coli)	MIC for gshA- DHB4 E. coli (gshA- DHB4 E. coli)	MIC for Gor- DHB4 E. coli (Gor- DHB4 E. coli)	further results
O=c1c2ccccc2[se]n1CCCCCCn1[se]c2ccccc2c1=O [EbSe 16]	20 µM	20 µM	35 µM	
O=c1c2ccccc2[se]n1CCn1[se]c2ccccc2c1=O [EbSe 14]	23 µM	23 µM	19 µM	Relative GPx activity [1]: No activity
O=c1c2ccccc2[se]n1-c1ccccc1 [EbSe 6, 2-phenyl-1,2-benzisoselenazol-3(2H)-one]	40 µM	26 µM	15 µM	second-order rate constant, reduction by reduced E. coli Trx (E. coli Trx): 2e+07 M⁻¹ s⁻¹; MIC, Mycobacterium tuberculosis [2]: lower than 20 mg/I; difference in sensitivity, Staphyloccus aureus versus E. coli (Staphylococcus aureus): 100 fold; concentration inhibiting growth of methicillin resistant Staphylococcus aureus (Staphylococcus aureus; methicillin resistant Staphylococcus aureus): 0.20 μg per ml; concentration inhibiting growth of Staphylococcus aureus 209P (Staphylococcus aureus; strain 209P): 0.20 µg/mL
O=C(Nc1ccccc1)c1ccccc1[Se][Se]c1ccccc1C(=O)Nc1ccccc1 [ebselen diselenide]				second-order rate constant, reduction by reduced E. coli Trx (E. coli Trx): 1700 M⁻¹ s⁻¹
O=c1c2ccccc2[se]n1-c1ccncc1 [EbSe 13]	45 µM	21 µM	24 µM	
CCOC(=O)c1cccnc1[Se]Nc1ccc(Cl)cn1 [compound 2]	No Inh.	No Inh.	No Inh.	
O=c1c2ccccc2[se]n1-c1ncccc1[N+](=O)[O-] [EbSe 12]	No Inh.	No Inh.	No Inh.	Relative GPx activity [1]: 0.93; IC50 (HEK 293T cells): 80 µM
O=C(O)c1ccccc1-n1[se]c2ccccc2c1=O [EbSe 9]	49 µM	24 µM	31 µM	
O=c1c2ccccc2[se]n1-c1ccc(Cl)cn1 [EbSe 11]	No Inh.	No Inh.	No Inh.	IC50 (E. coli TrxR; read-out: IC50 for E. coli TrxR, 100 nM TrxR, 2 μM Trx, 240 μM NADPH, 1 mM DTNB): > 40 µM; Ki (E. coli TrxR; read-out: Ki for E. coli TrxR, Dixon plot, 6 nM TrxR, Trx 1, 2 or 4 μM): 0.3 µM; Relative GPx activity [1]: 0.87; IC50 (HEK 293T cells): > 160 µM
Cc1cc(Cl)ccc1-n1[se]c2ccccc2c1=O [EbSe 8]	47 µM	13 µM	24 µM	
O=c1c2ccccc2[se]n1-c1ccc(Cl)cc1 [EbSe 7]	34 µM	20 µM	23 µM	
CC(C)(C)n1[se]c2ccccc2c1=O [EbSe 4]				inhibition of mammalian TrxR (in words) (recombinant rat TrxR): some activity to inhibit mammalian TrxR
